Assay results: ChEMBL document CHEMBL3991601, “The target landscape of clinical kinase drugs” (Science, 2017)
Activity calls are given as the source filed them. Cut-off read from the data, not from the text of the source, for most assays here: actives have a measured Kd and inactives only a lower limit.

Columns and labels:
[1] = molecular target: S-adenosylmethionine synthase isoform type-2 (Homo sapiens, UniProt P31153)
[2] = molecular target: Serine/threonine-protein kinase SIK3 (Homo sapiens, UniProt Q9Y2K2)
Sequence of Serine/threonine-protein kinase SIK3 (Q9Y2K2 whole entry): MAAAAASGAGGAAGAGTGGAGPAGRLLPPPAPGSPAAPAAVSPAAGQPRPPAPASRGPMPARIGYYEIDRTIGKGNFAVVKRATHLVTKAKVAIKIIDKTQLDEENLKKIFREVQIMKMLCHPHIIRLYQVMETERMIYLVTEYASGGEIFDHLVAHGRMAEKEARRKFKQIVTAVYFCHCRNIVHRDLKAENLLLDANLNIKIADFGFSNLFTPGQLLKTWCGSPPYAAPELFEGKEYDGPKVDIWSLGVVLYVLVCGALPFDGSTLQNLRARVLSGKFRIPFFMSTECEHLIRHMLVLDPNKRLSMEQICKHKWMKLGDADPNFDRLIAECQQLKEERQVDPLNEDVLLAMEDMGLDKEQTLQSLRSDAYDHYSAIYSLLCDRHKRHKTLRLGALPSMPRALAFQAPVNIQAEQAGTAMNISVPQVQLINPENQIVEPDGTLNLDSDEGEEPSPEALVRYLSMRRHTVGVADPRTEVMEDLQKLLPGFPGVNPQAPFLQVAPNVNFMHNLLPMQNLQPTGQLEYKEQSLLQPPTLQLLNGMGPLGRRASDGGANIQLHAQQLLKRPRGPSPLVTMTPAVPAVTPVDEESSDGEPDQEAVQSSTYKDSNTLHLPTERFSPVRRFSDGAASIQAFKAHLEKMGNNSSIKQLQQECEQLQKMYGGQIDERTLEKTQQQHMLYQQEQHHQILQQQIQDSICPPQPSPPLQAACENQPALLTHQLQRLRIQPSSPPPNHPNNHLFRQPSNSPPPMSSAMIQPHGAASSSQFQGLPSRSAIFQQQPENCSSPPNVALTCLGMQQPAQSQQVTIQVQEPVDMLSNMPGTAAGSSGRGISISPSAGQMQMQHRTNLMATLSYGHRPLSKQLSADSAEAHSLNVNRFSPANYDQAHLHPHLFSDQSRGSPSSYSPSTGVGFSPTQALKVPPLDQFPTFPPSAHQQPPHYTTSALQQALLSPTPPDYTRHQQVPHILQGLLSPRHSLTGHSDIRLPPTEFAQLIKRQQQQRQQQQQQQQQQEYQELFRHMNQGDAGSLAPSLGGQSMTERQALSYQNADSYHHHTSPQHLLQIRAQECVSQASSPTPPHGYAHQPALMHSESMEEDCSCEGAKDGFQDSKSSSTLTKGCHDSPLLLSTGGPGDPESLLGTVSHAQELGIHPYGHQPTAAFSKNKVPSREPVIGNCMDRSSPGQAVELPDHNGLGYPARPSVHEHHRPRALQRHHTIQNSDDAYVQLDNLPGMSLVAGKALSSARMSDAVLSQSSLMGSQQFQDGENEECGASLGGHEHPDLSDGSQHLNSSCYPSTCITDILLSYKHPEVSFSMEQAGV

[3] = molecular target: T1, Serine/threonine-protein kinase Nek3 (Homo sapiens, UniProt P51956)
T1 sequence (P51956 whole entry): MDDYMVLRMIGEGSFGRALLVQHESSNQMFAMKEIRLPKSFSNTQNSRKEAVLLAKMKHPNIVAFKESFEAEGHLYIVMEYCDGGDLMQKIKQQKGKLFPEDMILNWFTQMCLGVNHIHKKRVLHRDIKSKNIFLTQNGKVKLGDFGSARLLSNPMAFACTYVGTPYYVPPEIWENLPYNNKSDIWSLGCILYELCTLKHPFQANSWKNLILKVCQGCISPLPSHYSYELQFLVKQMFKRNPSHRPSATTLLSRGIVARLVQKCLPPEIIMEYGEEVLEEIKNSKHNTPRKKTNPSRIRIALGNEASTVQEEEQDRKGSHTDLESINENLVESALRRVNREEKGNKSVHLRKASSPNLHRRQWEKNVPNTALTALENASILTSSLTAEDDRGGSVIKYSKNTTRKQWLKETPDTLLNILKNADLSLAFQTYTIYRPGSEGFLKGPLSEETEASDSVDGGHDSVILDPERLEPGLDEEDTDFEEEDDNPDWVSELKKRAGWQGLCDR

[4] = molecular target: Interleukin-1 receptor-associated kinase 1 (Homo sapiens, UniProt P51617)
Sequence of Interleukin-1 receptor-associated kinase 1 (P51617 whole entry): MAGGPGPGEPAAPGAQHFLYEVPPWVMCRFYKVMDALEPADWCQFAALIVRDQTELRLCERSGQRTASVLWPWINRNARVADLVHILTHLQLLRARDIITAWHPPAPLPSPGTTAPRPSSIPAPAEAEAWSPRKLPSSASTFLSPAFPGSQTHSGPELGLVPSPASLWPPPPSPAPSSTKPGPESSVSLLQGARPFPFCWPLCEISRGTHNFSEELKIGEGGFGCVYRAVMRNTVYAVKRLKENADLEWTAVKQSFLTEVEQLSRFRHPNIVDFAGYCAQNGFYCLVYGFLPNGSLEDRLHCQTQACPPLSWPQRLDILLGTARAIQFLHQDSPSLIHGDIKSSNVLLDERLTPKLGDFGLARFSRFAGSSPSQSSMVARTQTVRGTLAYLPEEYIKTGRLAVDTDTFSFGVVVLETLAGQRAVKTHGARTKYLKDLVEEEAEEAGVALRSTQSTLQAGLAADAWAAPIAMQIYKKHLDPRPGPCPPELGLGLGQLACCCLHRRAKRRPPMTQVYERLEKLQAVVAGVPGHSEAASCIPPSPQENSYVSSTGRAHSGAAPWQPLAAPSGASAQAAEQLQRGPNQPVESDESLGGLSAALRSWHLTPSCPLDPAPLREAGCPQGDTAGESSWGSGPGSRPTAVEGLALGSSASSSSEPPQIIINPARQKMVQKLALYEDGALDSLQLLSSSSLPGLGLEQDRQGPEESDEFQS

[5] = molecular target: Ribosomal protein S6 kinase alpha-5 (Homo sapiens, UniProt O75582)
Sequence of Ribosomal protein S6 kinase alpha-5 (O75582 whole entry): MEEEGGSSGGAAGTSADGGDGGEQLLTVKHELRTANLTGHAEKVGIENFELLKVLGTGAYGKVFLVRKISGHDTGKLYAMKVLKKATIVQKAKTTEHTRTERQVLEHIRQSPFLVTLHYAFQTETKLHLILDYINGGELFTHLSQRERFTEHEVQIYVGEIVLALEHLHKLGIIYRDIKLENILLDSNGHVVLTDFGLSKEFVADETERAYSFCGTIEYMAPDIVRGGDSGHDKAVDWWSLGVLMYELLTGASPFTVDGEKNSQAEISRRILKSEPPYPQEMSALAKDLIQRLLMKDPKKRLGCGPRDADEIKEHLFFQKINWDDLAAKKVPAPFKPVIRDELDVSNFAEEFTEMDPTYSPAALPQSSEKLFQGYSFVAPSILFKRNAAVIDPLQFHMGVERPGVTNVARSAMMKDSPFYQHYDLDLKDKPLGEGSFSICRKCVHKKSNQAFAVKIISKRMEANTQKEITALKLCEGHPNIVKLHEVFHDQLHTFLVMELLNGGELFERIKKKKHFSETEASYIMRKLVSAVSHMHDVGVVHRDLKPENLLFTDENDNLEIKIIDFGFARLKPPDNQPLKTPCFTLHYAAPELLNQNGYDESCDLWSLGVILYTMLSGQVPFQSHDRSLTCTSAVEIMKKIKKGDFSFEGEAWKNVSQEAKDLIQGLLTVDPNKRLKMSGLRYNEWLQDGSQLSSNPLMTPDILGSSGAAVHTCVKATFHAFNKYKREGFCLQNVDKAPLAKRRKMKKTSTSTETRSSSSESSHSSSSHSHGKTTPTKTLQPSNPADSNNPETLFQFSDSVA

[6] = molecular target: T2, Serine/threonine-protein kinase D2 (Homo sapiens, UniProt Q9BZL6)
T2 sequence (Q9BZL6 whole entry): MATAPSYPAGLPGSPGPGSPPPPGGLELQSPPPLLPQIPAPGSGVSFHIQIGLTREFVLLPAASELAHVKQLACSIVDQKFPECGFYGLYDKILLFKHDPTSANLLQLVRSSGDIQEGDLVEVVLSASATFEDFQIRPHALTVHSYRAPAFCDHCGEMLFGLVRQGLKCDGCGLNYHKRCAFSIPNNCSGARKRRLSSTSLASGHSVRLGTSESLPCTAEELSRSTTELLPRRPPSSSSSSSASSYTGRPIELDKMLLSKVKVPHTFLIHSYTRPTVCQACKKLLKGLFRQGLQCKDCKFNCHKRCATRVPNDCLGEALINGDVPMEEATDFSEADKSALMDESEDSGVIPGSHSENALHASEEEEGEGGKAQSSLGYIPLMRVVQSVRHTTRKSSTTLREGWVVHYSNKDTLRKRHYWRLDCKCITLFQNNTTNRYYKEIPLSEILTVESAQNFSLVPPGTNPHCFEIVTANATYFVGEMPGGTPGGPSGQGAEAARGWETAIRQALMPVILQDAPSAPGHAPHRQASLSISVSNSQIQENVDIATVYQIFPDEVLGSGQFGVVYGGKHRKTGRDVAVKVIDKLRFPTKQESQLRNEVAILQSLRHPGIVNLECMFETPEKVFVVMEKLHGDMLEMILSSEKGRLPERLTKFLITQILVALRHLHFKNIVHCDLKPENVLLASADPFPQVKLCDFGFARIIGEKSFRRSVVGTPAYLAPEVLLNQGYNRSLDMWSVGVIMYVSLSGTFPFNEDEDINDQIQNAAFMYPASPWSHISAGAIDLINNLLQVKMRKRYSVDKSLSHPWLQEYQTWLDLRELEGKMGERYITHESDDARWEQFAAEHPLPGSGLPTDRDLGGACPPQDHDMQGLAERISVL

[7] = molecular target: T3, Discoidin domain-containing receptor 2 (Homo sapiens, UniProt Q16832)
T3 sequence (Q16832 whole entry): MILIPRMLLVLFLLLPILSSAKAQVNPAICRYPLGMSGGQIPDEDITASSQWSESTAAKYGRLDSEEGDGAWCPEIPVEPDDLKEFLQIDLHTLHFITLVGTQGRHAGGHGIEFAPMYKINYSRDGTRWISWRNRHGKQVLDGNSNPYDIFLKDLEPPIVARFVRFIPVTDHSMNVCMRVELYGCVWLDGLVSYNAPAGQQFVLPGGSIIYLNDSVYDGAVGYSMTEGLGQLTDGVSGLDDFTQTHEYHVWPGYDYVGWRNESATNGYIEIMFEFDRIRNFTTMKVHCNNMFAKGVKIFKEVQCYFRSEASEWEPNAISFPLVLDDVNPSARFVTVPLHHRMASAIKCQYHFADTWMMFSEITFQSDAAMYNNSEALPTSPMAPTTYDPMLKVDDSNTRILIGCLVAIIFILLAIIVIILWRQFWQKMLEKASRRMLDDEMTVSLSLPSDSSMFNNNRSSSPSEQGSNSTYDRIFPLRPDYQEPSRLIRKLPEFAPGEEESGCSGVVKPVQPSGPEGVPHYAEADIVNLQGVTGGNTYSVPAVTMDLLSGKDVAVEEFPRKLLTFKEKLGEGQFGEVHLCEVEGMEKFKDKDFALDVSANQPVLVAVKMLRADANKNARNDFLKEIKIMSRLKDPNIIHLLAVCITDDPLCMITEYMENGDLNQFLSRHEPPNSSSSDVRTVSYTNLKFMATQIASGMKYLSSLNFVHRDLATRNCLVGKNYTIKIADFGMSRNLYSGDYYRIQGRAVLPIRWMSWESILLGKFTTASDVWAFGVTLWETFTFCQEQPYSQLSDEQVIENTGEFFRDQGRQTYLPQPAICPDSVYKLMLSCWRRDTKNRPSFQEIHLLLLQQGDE

[8] = molecular target: Cyclin-dependent kinase 13 (Homo sapiens, UniProt Q14004)
Sequence of Cyclin-dependent kinase 13 (Q14004 whole entry): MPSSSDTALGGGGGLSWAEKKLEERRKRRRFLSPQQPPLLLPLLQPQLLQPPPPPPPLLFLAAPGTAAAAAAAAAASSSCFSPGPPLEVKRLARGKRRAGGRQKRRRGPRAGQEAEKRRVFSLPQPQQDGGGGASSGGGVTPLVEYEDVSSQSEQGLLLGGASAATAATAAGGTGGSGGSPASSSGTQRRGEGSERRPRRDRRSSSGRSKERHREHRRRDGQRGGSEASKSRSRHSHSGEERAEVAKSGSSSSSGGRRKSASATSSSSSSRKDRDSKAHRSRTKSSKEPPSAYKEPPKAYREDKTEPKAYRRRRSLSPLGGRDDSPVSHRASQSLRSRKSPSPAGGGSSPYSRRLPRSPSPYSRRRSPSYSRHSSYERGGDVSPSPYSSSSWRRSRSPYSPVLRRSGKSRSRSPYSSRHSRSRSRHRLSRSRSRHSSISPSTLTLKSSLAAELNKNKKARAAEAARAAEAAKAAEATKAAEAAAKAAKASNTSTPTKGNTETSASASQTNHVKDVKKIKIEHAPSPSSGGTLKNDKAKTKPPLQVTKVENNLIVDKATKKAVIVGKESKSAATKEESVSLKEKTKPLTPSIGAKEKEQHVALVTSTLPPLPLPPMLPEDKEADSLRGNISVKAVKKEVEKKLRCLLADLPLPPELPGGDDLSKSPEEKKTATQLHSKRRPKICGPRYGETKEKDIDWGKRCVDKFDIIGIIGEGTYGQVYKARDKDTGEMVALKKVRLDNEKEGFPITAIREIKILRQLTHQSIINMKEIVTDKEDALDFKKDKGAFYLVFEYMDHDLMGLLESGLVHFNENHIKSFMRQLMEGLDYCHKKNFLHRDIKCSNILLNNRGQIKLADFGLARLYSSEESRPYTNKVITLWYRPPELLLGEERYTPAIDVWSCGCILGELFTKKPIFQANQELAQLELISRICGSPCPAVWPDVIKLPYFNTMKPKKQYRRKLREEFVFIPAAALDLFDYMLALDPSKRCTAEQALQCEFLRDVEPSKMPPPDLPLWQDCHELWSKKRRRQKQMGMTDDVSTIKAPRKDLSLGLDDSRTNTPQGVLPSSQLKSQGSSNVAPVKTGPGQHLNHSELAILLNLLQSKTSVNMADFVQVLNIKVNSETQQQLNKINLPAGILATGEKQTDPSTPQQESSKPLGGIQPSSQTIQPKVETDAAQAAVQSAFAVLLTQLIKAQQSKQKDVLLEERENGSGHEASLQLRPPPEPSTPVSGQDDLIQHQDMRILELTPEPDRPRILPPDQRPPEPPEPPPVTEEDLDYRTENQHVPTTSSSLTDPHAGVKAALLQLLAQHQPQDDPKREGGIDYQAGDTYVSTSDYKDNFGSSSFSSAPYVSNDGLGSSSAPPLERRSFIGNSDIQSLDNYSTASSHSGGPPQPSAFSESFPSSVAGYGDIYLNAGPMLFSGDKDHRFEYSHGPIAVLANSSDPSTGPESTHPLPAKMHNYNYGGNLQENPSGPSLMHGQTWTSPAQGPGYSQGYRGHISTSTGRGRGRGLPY
Note: in the data inactive means no Kd found up to 30 µM.

Sequence of S-adenosylmethionine synthase isoform type-2 (P31153 whole entry, canonical isoform): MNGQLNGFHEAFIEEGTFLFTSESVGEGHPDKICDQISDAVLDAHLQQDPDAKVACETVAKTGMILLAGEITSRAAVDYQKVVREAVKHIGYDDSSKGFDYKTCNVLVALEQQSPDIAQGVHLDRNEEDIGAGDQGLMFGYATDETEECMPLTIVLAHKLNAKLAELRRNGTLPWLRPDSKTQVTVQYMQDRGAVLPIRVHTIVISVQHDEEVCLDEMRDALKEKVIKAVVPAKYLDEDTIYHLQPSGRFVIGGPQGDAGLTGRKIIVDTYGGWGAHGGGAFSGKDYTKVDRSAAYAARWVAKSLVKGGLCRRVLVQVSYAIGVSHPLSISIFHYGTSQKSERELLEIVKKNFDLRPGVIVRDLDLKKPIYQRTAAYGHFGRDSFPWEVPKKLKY

Row | Kd [1] | Kd [2] | Kd [3] | Kd [4] | Kd [5] | Kd [6] | Kd [7] | Kd [8] | Structure (SMILES)
1 | > 30 µM (inactive) | > 30 µM (inactive) | > 30 µM (inactive) | > 30 µM (inactive) | > 30 µM (inactive) | > 30 µM (inactive) | > 30 µM (inactive) | > 30 µM (inactive) | Cc1cc([C@@H](C)Nc2ccccc2C(=O)O)c2nc(N3CCOCC3)cc(=O)n2c1 [AZD-6482]
2 | > 30 µM (inactive) | > 30 µM (inactive) | > 30 µM (inactive) | > 30 µM (inactive) | > 30 µM (inactive) | > 30 µM (inactive) | 1.49 µM (active) | > 30 µM (inactive) | COCCNCc1ccc(-c2cc3nccc(Oc4ccc(NC(=S)NC(=O)Cc5ccc(F)cc5)cc4F)c3s2)nc1 [GLESATINIB]
3 | > 30 µM (inactive) | > 30 µM (inactive) | > 30 µM (inactive) | > 30 µM (inactive) | > 30 µM (inactive) | > 30 µM (inactive) | > 30 µM (inactive) | > 30 µM (inactive) | CCn1c(=O)c(-c2cc[nH]n2)cc2c(C)nc(N)nc21 [VOXTALISIB]
4 | > 30 µM (inactive) | > 30 µM (inactive) | > 30 µM (inactive) | > 30 µM (inactive) | > 30 µM (inactive) | > 30 µM (inactive) | > 30 µM (inactive) | > 30 µM (inactive) | COc1ccc(-c2ccc3c(N4CCOC[C@@H]4C)nc(N4CCOC[C@@H]4C)nc3n2)cc1CO [AZD-8055]
5 | > 30 µM (inactive) | > 30 µM (inactive) | > 30 µM (inactive) | > 30 µM (inactive) | > 30 µM (inactive) | 25 µM (active) | > 30 µM (inactive) | > 30 µM (inactive) | CN(C)C(=O)c1cc2cnc(Nc3ccc(N4CCNCC4)cn3)nc2n1C1CCCC1 [RIBOCICLIB]
6 | > 30 µM (inactive) | > 30 µM (inactive) | > 30 µM (inactive) | > 30 µM (inactive) | > 30 µM (inactive) | > 30 µM (inactive) | > 30 µM (inactive) | > 30 µM (inactive) | Cc1cc2c(F)c(Oc3ncnn4cc(OC[C@@H](C)OC(=O)[C@H](C)N)c(C)c34)ccc2[nH]1 [BRIVANIB ALANINATE]

Row | Structure (SMILES) | Kd [1] | Kd [2] | Kd [3] | Kd [4] | Kd [5] | Kd [6] | Kd [7] | Kd [8]
7 | COC(=O)[C@@]1(O)C[C@H]2O[C@]1(C)n1c3ccccc3c3c4c(c5c6ccccc6n2c5c31)C(=O)NC4 [K-252A] | > 30 µM (inactive) | 4.03 µM (active) | > 30 µM (inactive) | > 30 µM (inactive) | 14.7 µM (active) | 0.03 µM (active) | > 30 µM (inactive) | > 30 µM (inactive)
8 | Cc1ccc(-n2nc(C(C)(C)C)cc2NC(=O)NCc2cc(F)ccc2Oc2ccc3c(cnn3CCO)c2)cc1 [PEXMETINIB] | > 30 µM (inactive) | > 30 µM (inactive) | > 30 µM (inactive) | 4.37 µM (active) | > 30 µM (inactive) | > 30 µM (inactive) | 1.14 µM (active) | > 30 µM (inactive)
